Entries after “also recorded” stand apart in the source; their conditions may differ.
Tests used:
[1] = system: IDO-GFP fusion protein; format: cell-based; conditions: HEK 293 cells
Protocol: (§1) FIG. 3A-3B are autoradiographs of a Western blot showing expression of the indicated proteins in control (left lane) and 0.5 μM EnnA-treated (right lane) E0771 (FIG. 3A) and AT3 (FIG. 3B) cells. FIG. 3C is a graph showing FACS analysis of PD-L1 level in AT3 cells. FIGS. 3D-3K are graphs showing qPCR analysis of the mRNA level of cytokines TNFa (FIG. 3D), IL-6 (FIG. 3E), TGFb1 (FIG. 3F) and IL-10 (FIG. 3G), the chemokines S100a9 (FIG. 3J) and CCL3 (FIG. 3K), as well as PDL1 (FIG. 3H) and IDO (FIG. 3I). FIGS. 3L-3Q are micrographs of HEK293 cells transiently transfected with GFP-IDO fusion protein expressing or GFP alone plasmids for 24 h. Cells were then treated with 5 μM EnnA for 6 h and analyzed for green fluorescence and bright light. FIG. 3R is a line graph of μg/ml of tryptophan and its IDO-mediated product kynurenine using the previously reported HPLC-based assay.
(§2) Western blot analysis (FIG. 3A-3B) confirmed that EnnA destabilizes pAKT and reduces the protein expression of Hsp40 in E0771 and AT3. […] It also reduces the mRNA level of the chemokines S100a9 and CCL3 (FIG. 3J-3K). Importantly, EnnA reduces the mRNA and protein levels of the key immunological checkpoint component PDL-1 (FIG. 3H). Similar results were obtained with EMT6 (not shown). […]

[2] = system: Hsp90 client proteins, Hsp70, Hsp27; test: Western blots of cytosols from cell lines treated with 17-AAG or EnnA; format: cell-based, human
Excerpt: (§3) The first bar indicates 100% folding activity of RRL without inhibitor. PR22 indicates the antibody without PR but with RRL and EnnA. PR represents the antibody (PR22) with PR but without RRL. All other samples have PR22, PR, and RRL without (first bar) or with increased concentration of EnnA. FIGS. 1C-1E are line graphs of cell survival versus EnnA concentration (μM) in breast cancer cell lines Hs578T (FIG. 1C), […] (FIG. 1D) and MDA-MB231 (FIG. 1E) upon treatment with EnnA for 48 and 72 h. […] PR alone (PR), antibody (PR22)+RRL, PR+RRL without inhibitor (RRL), PR+RRL with 1 μM 17-AAG (17AAG) PR+RRL with 10 μM BEAU or EnnA. FIGS. 1G-1I are autoradiographs of Western blots of cytosols from various cell lines treated with 17-AAG (1 μM) or EnnA (3 μM) with antibodies against the specified proteins. FIG. 1J is an autoradiograph showing EnnA causes autophagy in Hs578T and MDA-MB453 cell lines. FIGS. 1K-1N are electron microscopy micrographs showing autophagosomes and reduced mitochondria content in Hs578T cells treated with DMSO or EnnA. FIGS. 1O-1P are fluorescence micrographs showing EnnA causing reduced mitochondria content in Hs578T cells. FIGS. 1Q-1BB are fluorescence micrographs showing mitophagy in Hsp578T cells treated with EnnA as indicated by colocalization of the mitochondria marker Cox4 and the autophagy marker LC3BII.

[3] = system: IDO; test: HPLC-based assay of tryptophan and kynurenine in culture media; format: cell-based; conditions: HEK 293 cells expressing IDO-GFP
Protocol: as §1, §2

[4] = system: E0771 tumors; test: re-challenge of cured mice with E0771 cells (immune memory); format: in vivo; conditions: EnnA/CPA-treated group re-challenged with 50,000 E0771 cells; tumors completely eliminated 10 days later
Excerpt: FIG. 6A is a line graph of tumor volume (mm^3) versus days post implantation. FIG. 6B-6E are images of three representative mice from each indicated group at the end of the treatment. FIGS. 6F-6I are a panel of images of mice from the CPA+EnnA group monitored for tumor recurrence for two more months (3 months post implantation). No tumor recurrence was observed. They were re-challenged with 50,000 E0771 cells implanted in the opposite fat pad. Five Naïve mice were used as controls. Upper panels and lower show luciferase luminescence images of mice bearing tumors at 7 and 17 days after the second implantation, respectively.
The anti-tumor activity of EnnA involves both cytotoxicity and clearance by T cells. […] Indeed, EnnA/CPA-treated mice remained tumor-free for 2 months after the end of EnnA treatment. To test whether the cured mice developed immune memory, […] 50,000 E0771 tumor cells.

[5] = system: MDA-MB-231 cell line; test: cell survival of breast cancer cell line upon treatment with EnnA; format: cell-based, human; conditions: MDA-MB-231, 48 and 72 h
Excerpt: as §3

[6] = system: HER2+ MAD-MB-453 cell line; test: as above; format: cell-based, human; conditions: MAD-MB-453, 48 and 72 h
Excerpt: as §3

[7] = system: Hs578T triple-negative cell line; test: as above; format: cell-based, human; conditions: 48 and 72 h
Excerpt: as §3

[8] = system: E0771 tumors; test: E0771 tumor model: EnnA versus 17-AAG and combinations with CPA or anti-CD8; format: in vivo, mice
Protocol: Groups of mice (n=10) were implanted with 50,000 E0771 cells. When tumors were about 150 mm3 in volume (10 days post-implantation), mice were injected every other day with DMSO, EnnA (10 mg/Kg) or 17-AAG (10 mg/Kg). Two extra groups were made. In one group, EnnA was combined with one dose (150 mg/Kg) of cyclophosphamide (CPA) on day 14. In the other EnnA was combined with anti-CD8 antibody (250 μg/mouse) injected on day 18 and 22.

In the case of `CC[C@H](C)[C@H]1C(=O)O[C@H](C(C)C)C(=O)N(C)[C@@H]([C@@H](C)CC)C(=O)O[C@H](C(C)C)C(=O)N(C)[C@@H]([C@@H](C)CC)C(=O)O[C@H](C(C)C)C(=O)N1C` [EnnA, Enniatin A], the IDO-GFP green fluorescence ([1]; 5 μM EnnA, 6 h) is reported as “dramatic loss”, the cell death ([1]; early time point (6 h)) is reported as “No significant cell death” and the “stability of Hsp90 client proteins” value ([2]; EnnA 3 μM) is reported as “destabilization”. For the same compound, the “induction of Hsp27” value ([2]; MAD-MB-453 cells) was “slightly induced”, the “overexpression of Hsp70” value ([2]; all cell lines tested, EnnA 3 μM) was “does not induce overexpression” and the “IDO enzymatic activity (tryptophan accumulation, kynurenine reduction in culture media)” value [3] was “loss of IDO enzymatic activity”. The “mice showing small tumors seven days after the second implantation” value [4] was “two of the seven”, the cytotoxicity [5] was “potent and concentration-dependent cytotoxicity” and the cytotoxicity [6] was “potent and concentration-dependent cytotoxicity”. The cytotoxicity [7] was “potent and concentration-dependent cytotoxicity”, the “breast cancer metastasis to the lungs” value ([8]; E0771 tumor bearing mice, H&E lung sections) was “prevents” and the tumor outcome ([8]; EnnA 10 mg/Kg combined with one dose (150 mg/Kg) of cyclophosphamide (CPA) on day 14) was “completely cured”. For the same compound, the “tumor growth after CD8 T cell depletion” value ([8]; EnnA combined with anti-CD8 antibody (250 μg/mouse) on day 18 and 22) was “restores an aggressive tumor growth; also recorded: rapid regrowth of tumors”, the “time mice remained tumor-free after the end of EnnA treatment” value ([8]; EnnA/CPA-treated mice) was 2 months and the “anti-tumor efficacy compared with 17-AAG” value ([8]; each 10 mg/Kg every other day) was “more efficacious than 17-AAG”.
